In PMC10659432 (bioRxiv, 2023):

How the values were obtained:
5-HT1FR [1] = target: T1, 5-HT1FR (Homo sapiens, UniProt P30939); assay: BRET Gi1 activation assay in transfected HEK293T cells, agonism; format: cell-based
5-HT1eR [2] = target: T2, 5-HT1eR (Homo sapiens, UniProt P28566); assay: as above; format: cell-based
Target sequence in this assay (P63096 2-354): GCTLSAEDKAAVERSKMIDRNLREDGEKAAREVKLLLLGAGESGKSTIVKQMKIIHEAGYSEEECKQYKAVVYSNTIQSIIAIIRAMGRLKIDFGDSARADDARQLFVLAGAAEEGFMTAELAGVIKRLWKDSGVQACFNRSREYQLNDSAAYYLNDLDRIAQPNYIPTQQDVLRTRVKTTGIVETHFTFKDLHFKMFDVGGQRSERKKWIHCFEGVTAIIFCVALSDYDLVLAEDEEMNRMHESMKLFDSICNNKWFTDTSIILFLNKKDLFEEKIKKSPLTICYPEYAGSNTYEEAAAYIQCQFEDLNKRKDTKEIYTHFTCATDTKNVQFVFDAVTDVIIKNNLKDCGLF
Target sequence in this assay (P62873 2-340, further chain): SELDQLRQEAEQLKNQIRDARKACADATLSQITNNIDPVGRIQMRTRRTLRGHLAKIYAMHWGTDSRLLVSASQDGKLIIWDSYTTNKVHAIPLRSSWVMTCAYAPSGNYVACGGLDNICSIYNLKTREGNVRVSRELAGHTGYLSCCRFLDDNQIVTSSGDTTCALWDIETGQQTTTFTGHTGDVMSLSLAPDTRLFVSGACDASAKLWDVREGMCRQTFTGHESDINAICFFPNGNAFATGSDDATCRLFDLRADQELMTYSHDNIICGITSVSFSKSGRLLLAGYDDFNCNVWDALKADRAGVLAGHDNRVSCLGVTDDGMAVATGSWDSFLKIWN
Target sequence in this assay (P59768 2-68, further chain): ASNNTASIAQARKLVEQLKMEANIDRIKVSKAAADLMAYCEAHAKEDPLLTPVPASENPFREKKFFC
Target sequence in this assay (P28566 whole entry): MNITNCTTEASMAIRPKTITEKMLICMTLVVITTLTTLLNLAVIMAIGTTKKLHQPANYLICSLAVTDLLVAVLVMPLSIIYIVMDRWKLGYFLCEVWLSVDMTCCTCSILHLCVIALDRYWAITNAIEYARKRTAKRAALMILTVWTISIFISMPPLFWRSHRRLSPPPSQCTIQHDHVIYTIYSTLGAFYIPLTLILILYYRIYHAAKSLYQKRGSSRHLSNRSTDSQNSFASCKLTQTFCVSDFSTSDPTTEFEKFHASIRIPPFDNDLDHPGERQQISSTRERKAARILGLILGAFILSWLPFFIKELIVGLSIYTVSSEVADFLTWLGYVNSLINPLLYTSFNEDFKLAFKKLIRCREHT

5-HT1FR [3] = target: T1, 5-HT1FR; assay: G protein BRET assay in transfected HEK293T cells, agonism; format: cell-based
5-HT1eR [4] = target: T2, 5-HT1eR; assay: cryoEM structure at […] Å; format: cell-based
Target sequence in this assay (P28566 whole entry): as above

5-HT1FR [5] = target: T1, 5-HT1FR; assay: G protein BRET assay in transfected HEK293T cells, full agonism; format: cell-based
5-HT1eR [6] = target: T2, 5-HT1eR; assay: cryoEM structure at […] Å
Target sequence in this assay (P28566 whole entry): as above

T1 sequence (P62873 2-340): as the sequence (P62873 2-340, further chain) above
T1 sequence (P30939 whole entry): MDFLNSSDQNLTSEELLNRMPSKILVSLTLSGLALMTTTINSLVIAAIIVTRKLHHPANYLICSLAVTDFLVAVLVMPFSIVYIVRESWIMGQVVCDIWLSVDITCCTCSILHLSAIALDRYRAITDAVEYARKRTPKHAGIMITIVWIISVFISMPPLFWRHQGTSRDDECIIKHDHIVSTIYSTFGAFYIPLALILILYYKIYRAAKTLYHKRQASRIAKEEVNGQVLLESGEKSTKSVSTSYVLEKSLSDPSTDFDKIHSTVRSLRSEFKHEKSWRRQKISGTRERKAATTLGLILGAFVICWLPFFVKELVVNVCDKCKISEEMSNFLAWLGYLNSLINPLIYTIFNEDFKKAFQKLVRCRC
T1 sequence (P63096 2-354, further chain): as the sequence (P63096 2-354) above
T1 sequence (P59768 2-68, further chain): as the sequence (P59768 2-68, further chain) above

For CC[C@@H](CO)NC(=O)[C@@H]1C=C2c3cccc4[nH]cc(c34)C[C@H]2N(C)C1 [methylergonovine], which EC50 (5-HT1FR [1]) is on record?
Its EC50 is 5.2 nM.

What about the EC50 (5-HT1eR [2]) of the same compound?
Its EC50 is 17 nM.

How did the EC50 (5-HT1FR [3]) turn out when CN1CCN2c3ncccc3Cc3ccccc3C2C1 (stereo not shown) [mirtazapine] was run?
Its EC50 is 236 nM.

CN1CCC2=C(C1)c1ccccc1Cc1ccccc12 [setiptiline] was tested. Which EC50 (5-HT1eR [4]) did it give?
Its EC50 is 171 nM.

And the EC50 (5-HT1FR [5])?
The EC50 was 64.6 nM.

What does the source list for CN1CCN2c3ccccc3Cc3ccccc3C2C1 (stereo not shown) [mianserin]?
EC50 (5-HT1eR [6]): 123 nM; EC50 (5-HT1FR [1]): 47.5 nM

Cc1cc(C(C)(C)C)c(O)c(C)c1CC1=NCCN1 [oxymetazoline] was tested. Which EC50 (5-HT1FR [1]) did it give?
The EC50 was 11.3 nM.

What does the source list for CN1CCC(=C2c3ccccc3Sc3ccccc32)CC1 [pimethixene]?
EC50 (5-HT1FR [1]): 456 nM; EC50 (5-HT1eR [2]): 353 nM
